Results: the kinase profiling compilation of Christmann-Franck et al. (2016)
Blank lines part the entries; values can stand above or below the compound they belong to.

How the values were obtained:
Test in all cases: radiometric filter-binding kinase assay
DYRK2 (human) = DYRK2 (human) (UniProt Q92630)
TAOK1 (human) = TAOK1 (human) (UniProt Q7L7X3)
RPS6KA3 KD1 KD2 (human) = RPS6KA3 KD1 KD2 (human) (UniProt P51812)
MST4 (human) = MST4 (human) (UniProt Q9P289)
EPHA2 (human) = EPHA2 (human) (UniProt P29317)
EEF2K (human) = EEF2K (human) (UniProt O00418)
CDK2 CCNA2 (human) = CDK2 CCNA2 (human) (UniProt P20248+P24941)
BRSK1 (human) = BRSK1 (human) (UniProt Q8TDC3)
MAPK12 (human) = MAPK12 (human) (UniProt P53778)
INSRR (human) = INSRR (human) (UniProt P14616)
PIM2 (human) = PIM2 (human) (UniProt Q9P1W9)
MELK (human) = MELK (human) (UniProt Q14680)
MAPK15 (human) = MAPK15 (human) (UniProt Q8TD08)
MAP2K6 (human) = MAP2K6 (human) (UniProt P52564)
CSNK2A1 (human) = CSNK2A1 (human) (UniProt P68400)
PIM3 (human) = PIM3 (human) (UniProt Q86V86)
RIPK2 (human) = RIPK2 (human) (UniProt O43353)
AURKB (human) = AURKB (human) (UniProt Q96GD4)
FGFR1 (human) = FGFR1 (human) (UniProt P11362)
MAP2K2 (human) = MAP2K2 (human) (UniProt P36507)
MINK1 (human) = MINK1 (human) (UniProt Q8N4C8)
MAPKAPK3 (human) = MAPKAPK3 (human) (UniProt Q16644)
CHEK1 (human) = CHEK1 (human) (UniProt O14757)
BTK (human) = BTK (human) (UniProt Q06187)
[1] = tested on: SGK1 (human), O00141 [S422D]
FLT1 (human) = FLT1 (human) (UniProt P17948)
PRKCA (human) = PRKCA (human) (UniProt P17252)
MAPK10 (human) = MAPK10 (human) (UniProt P53779)
ERBB4 (human) = ERBB4 (human) (UniProt Q15303)
GCK (human) = GCK (human) (UniProt Q12851)
AURKA (human) = AURKA (human) (UniProt O14965)
SRPK1 (human) = SRPK1 (human) (UniProt Q96SB4)
PHKG1 (human) = PHKG1 (human) (UniProt Q16816)
[2] = tested on: PAK2 (human), Q13177 [T402E]
PRKACA (human) = PRKACA (human) (UniProt P17612)

Chain of CSNK2A1 (human) (P68400 whole entry, looked up): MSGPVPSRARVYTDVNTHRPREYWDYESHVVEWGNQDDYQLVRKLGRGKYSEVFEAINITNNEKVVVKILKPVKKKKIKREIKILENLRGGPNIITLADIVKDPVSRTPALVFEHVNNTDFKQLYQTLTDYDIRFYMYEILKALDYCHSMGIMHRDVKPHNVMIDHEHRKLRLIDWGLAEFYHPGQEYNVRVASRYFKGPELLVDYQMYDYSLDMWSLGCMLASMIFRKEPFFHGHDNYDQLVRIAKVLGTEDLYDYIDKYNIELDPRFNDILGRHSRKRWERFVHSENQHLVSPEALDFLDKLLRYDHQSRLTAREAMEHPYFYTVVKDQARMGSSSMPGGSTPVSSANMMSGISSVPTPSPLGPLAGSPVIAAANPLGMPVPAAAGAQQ
Chain of TAOK1 (human) (Q7L7X3 whole entry, looked up): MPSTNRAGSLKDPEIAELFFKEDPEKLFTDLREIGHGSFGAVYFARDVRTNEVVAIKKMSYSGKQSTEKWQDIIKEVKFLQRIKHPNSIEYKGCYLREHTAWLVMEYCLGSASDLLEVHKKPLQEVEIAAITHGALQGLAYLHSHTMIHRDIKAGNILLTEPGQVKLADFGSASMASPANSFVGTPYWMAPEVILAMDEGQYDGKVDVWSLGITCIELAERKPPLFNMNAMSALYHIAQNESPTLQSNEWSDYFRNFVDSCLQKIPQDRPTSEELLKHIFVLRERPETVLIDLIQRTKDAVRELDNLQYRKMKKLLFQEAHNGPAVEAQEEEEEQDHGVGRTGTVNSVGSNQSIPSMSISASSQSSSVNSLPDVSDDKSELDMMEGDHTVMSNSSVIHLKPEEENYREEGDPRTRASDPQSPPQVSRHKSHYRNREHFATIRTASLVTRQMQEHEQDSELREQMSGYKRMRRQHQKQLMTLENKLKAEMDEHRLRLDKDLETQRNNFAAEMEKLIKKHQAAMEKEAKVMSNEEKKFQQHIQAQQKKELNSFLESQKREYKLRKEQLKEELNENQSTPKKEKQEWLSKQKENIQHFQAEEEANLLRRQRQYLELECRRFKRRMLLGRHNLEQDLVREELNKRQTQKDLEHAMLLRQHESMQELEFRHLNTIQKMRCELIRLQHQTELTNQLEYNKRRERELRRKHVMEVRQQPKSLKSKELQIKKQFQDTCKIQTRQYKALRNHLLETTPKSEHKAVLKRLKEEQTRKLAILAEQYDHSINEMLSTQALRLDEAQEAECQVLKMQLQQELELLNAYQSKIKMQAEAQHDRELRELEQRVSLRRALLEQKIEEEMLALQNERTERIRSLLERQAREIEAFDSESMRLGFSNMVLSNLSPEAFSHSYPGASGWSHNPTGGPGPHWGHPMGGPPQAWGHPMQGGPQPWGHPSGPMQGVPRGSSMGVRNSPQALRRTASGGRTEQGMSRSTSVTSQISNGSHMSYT
Chain of MAP2K2 (human) (P36507 whole entry, looked up): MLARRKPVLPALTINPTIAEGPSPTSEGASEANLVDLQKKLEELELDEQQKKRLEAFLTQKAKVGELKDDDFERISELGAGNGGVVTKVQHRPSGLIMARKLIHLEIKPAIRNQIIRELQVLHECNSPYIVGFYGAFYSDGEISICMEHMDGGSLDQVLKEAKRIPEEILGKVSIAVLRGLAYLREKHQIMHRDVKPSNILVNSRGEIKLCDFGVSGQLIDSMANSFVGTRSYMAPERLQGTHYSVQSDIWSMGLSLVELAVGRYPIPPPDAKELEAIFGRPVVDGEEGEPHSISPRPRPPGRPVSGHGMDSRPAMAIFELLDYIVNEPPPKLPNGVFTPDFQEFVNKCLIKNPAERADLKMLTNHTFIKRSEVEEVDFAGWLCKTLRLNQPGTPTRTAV
Chain of AURKA (human) (O14965 whole entry, looked up): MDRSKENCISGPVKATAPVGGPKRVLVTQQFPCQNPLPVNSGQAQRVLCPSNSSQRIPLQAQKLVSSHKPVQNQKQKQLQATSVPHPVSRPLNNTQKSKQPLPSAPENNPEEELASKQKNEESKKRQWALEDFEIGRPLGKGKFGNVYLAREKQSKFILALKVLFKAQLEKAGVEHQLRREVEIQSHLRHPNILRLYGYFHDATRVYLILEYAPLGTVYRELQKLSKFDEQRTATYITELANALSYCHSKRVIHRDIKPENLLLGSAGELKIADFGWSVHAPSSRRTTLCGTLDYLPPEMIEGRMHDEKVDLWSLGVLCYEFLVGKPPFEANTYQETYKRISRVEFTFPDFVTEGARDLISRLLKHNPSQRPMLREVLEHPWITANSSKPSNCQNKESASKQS
Chain of AURKB (human) (Q96GD4 whole entry, looked up): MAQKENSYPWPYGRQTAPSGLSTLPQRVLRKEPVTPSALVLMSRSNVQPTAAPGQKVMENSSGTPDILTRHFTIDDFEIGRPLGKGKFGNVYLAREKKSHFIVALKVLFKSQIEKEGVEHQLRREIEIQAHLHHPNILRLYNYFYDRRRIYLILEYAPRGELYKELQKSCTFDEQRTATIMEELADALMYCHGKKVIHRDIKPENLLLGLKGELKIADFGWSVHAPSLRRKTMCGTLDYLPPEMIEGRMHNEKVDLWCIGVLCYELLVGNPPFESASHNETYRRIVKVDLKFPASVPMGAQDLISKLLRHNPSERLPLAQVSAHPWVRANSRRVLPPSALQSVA
Chain of RPS6KA3 KD1 KD2 (human) (P51812 whole entry, looked up): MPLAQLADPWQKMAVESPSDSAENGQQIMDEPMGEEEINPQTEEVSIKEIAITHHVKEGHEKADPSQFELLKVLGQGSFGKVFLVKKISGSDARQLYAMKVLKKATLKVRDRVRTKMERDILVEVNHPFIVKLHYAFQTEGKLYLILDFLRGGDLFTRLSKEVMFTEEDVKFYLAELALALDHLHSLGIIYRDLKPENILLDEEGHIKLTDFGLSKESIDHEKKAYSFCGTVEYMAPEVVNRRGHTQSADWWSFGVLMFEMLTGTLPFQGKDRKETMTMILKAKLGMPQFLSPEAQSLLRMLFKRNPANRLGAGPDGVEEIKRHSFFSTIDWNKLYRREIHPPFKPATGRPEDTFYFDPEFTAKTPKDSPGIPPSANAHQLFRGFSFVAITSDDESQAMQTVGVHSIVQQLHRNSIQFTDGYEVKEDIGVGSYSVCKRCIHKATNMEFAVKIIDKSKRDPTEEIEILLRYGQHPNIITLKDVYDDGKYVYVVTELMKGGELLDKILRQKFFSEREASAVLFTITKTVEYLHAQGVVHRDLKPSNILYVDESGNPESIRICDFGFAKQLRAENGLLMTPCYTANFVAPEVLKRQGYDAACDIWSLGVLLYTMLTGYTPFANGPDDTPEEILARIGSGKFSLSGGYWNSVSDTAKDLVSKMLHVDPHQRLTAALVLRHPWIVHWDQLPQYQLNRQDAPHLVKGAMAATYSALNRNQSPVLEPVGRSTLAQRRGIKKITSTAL
Chain of MELK (human) (Q14680 whole entry, looked up): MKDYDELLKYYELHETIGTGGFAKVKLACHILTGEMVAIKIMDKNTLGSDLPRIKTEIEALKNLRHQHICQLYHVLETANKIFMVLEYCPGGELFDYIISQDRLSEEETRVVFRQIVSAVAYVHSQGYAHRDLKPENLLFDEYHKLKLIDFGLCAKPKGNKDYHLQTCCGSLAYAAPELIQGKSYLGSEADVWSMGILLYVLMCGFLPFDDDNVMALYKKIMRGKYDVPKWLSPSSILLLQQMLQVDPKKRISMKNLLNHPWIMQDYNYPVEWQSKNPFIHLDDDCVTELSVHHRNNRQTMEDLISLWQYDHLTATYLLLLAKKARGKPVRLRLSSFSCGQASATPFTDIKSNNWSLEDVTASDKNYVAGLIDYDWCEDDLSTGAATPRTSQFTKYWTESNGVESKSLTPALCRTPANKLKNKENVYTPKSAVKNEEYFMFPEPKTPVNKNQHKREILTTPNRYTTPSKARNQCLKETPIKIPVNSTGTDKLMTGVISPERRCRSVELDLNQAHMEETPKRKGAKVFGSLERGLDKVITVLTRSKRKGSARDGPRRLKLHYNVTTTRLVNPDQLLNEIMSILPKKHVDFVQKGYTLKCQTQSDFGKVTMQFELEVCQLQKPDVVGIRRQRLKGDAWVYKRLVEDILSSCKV
Chain of CHEK1 (human) (O14757 whole entry, looked up): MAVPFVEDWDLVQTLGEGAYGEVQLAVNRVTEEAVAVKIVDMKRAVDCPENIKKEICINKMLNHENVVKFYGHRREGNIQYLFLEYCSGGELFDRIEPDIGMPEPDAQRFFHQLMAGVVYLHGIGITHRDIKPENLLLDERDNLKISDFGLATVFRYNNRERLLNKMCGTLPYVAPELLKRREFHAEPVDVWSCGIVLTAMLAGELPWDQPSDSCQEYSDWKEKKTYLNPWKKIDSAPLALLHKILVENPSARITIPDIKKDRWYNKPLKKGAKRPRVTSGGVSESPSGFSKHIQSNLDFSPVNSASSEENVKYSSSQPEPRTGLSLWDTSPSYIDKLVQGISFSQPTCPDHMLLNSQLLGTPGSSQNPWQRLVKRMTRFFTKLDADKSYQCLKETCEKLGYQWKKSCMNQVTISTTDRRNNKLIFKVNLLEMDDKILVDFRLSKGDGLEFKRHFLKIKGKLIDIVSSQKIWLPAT
Chain of MAPK10 (human) (P53779 whole entry, looked up): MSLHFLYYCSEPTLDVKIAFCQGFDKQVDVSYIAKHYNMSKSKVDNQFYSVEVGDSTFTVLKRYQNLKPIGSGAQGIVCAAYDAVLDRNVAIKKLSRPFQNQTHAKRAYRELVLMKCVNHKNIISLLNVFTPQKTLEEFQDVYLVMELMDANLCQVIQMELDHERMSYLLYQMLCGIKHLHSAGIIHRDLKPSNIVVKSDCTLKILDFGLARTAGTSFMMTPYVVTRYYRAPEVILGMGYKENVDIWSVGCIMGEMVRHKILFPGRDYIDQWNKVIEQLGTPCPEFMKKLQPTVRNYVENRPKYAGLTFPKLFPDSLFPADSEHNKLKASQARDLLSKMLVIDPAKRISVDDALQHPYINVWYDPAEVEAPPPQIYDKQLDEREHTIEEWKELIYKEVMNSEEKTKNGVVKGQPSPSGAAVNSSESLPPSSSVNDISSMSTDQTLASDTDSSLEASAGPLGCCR

residual activity (DYRK2 (human); compound 0.1 µM): 97% | residual activity (DYRK2 (human); compound 1.0 µM): 88% | residual activity (DYRK2 (human); compound 10.0 µM): 104% | residual activity (TAOK1 (human); compound 0.1 µM): 103% | residual activity (TAOK1 (human); compound 1.0 µM): 113% | residual activity (TAOK1 (human); compound 10.0 µM): 120% | residual activity (RPS6KA3 KD1 KD2 (human); compound 0.1 µM): 114% | residual activity (RPS6KA3 KD1 KD2 (human); compound 1.0 µM): 98% | residual activity (RPS6KA3 KD1 KD2 (human); compound 10.0 µM): 74% | residual activity (MST4 (human); compound 0.1 µM): 97% | residual activity (MST4 (human); compound 1.0 µM): 95% | residual activity (EPHA2 (human); compound 0.1 µM): 94% | residual activity (EPHA2 (human); compound 1.0 µM): 93% | residual activity (EPHA2 (human); compound 10.0 µM): 96% | residual activity (EEF2K (human); compound 0.1 µM): 104% | residual activity (EEF2K (human); compound 1.0 µM): 100% | residual activity (EEF2K (human); compound 10.0 µM): 97% | residual activity (CDK2 CCNA2 (human); compound 0.1 µM): 108% | residual activity (CDK2 CCNA2 (human); compound 1.0 µM): 113% | residual activity (CDK2 CCNA2 (human); compound 10.0 µM): 117% | residual activity (BRSK1 (human); compound 0.1 µM): 106% | residual activity (BRSK1 (human); compound 1.0 µM): 111% | residual activity (BRSK1 (human); compound 10.0 µM): 91% | residual activity (MAPK12 (human); compound 0.1 µM): 114% | residual activity (MAPK12 (human); compound 1.0 µM): 116% | residual activity (MAPK12 (human); compound 10.0 µM): 103% | residual activity (INSRR (human); compound 0.1 µM): 99% | residual activity (INSRR (human); compound 1.0 µM): 97% | residual activity (INSRR (human); compound 10.0 µM): 77% | residual activity (PIM2 (human); compound 0.1 µM): 96% | residual activity (PIM2 (human); compound 1.0 µM): 102% | residual activity (PIM2 (human); compound 10.0 µM): 97% | residual activity (MELK (human); compound 0.1 µM): 98% | residual activity (MELK (human); compound 1.0 µM): 107% | residual activity (MELK (human); compound 10.0 µM): 123% | residual activity (MAP2K6 (human); compound 0.1 µM): 95% | residual activity (MAP2K6 (human); compound 10.0 µM): 109% | residual activity (CSNK2A1 (human); compound 0.1 µM): 79% | residual activity (CSNK2A1 (human); compound 1.0 µM): 94% | residual activity (CSNK2A1 (human); compound 10.0 µM): 94% | residual activity (PIM3 (human); compound 0.1 µM): 95% | residual activity (PIM3 (human); compound 1.0 µM): 110% | residual activity (PIM3 (human); compound 10.0 µM): 83% | residual activity (RIPK2 (human); compound 0.1 µM): 95% | residual activity (RIPK2 (human); compound 1.0 µM): 108% | residual activity (RIPK2 (human); compound 10.0 µM): 110% | residual activity (AURKB (human); compound 0.1 µM): 108% | residual activity (AURKB (human); compound 1.0 µM): 86% | residual activity (AURKB (human); compound 10.0 µM): 10% | residual activity (FGFR1 (human); compound 0.1 µM): 98% | residual activity (FGFR1 (human); compound 1.0 µM): 97% | residual activity (FGFR1 (human); compound 10.0 µM): 94% | residual activity (MAP2K2 (human); compound 0.1 µM): 108% | residual activity (MAP2K2 (human); compound 10.0 µM): 120% | residual activity (MINK1 (human); compound 0.1 µM): 94% | residual activity (MINK1 (human); compound 1.0 µM): 88% | residual activity (MINK1 (human); compound 10.0 µM): 81% | residual activity (MAPKAPK3 (human); compound 0.1 µM): 120% | residual activity (MAPKAPK3 (human); compound 1.0 µM): 85% | residual activity (MAPKAPK3 (human); compound 10.0 µM): 47% | residual activity (CHEK1 (human); compound 0.1 µM): 109% | residual activity (CHEK1 (human); compound 1.0 µM): 114% | residual activity (CHEK1 (human); compound 10.0 µM): 117% | residual activity (BTK (human); compound 0.1 µM): 118% | residual activity (BTK (human); compound 1.0 µM): 115% | residual activity (BTK (human); compound 10.0 µM): 110% | residual activity ([1]; compound 0.1 µM): 110% | residual activity ([1]; compound 10.0 µM): 103% | residual activity (FLT1 (human); compound 0.1 µM): 120% | residual activity (FLT1 (human); compound 10.0 µM): 30% | residual activity (PRKCA (human); compound 0.1 µM): 96% | residual activity (PRKCA (human); compound 1.0 µM): 111% | residual activity (PRKCA (human); compound 10.0 µM): 96% | residual activity (MAPK10 (human); compound 0.1 µM): 122% | residual activity (MAPK10 (human); compound 1.0 µM): 125% | residual activity (MAPK10 (human); compound 10.0 µM): 136% | residual activity (ERBB4 (human); compound 0.1 µM): 113% | residual activity (ERBB4 (human); compound 1.0 µM): 109% | residual activity (ERBB4 (human); compound 10.0 µM): 101% | residual activity (GCK (human); compound 0.1 µM): 98% | residual activity (GCK (human); compound 1.0 µM): 106% | residual activity (GCK (human); compound 10.0 µM): 68% | residual activity (AURKA (human); compound 0.1 µM): 108% | residual activity (AURKA (human); compound 1.0 µM): 102% | residual activity (AURKA (human); compound 10.0 µM): 30% | residual activity (SRPK1 (human); compound 0.1 µM): 89% | residual activity (SRPK1 (human); compound 1.0 µM): 86% | residual activity (SRPK1 (human); compound 10.0 µM): 63% | residual activity (PHKG1 (human); compound 0.1 µM): 110% | residual activity (PHKG1 (human); compound 1.0 µM): 112% | residual activity (PHKG1 (human); compound 10.0 µM): 105% | residual activity ([2]; compound 0.1 µM): 100% | residual activity ([2]; compound 1.0 µM): 96% | residual activity ([2]; compound 10.0 µM): 86% | residual activity (PRKACA (human); compound 0.1 µM): 112% | residual activity (PRKACA (human); compound 1.0 µM): 109% | residual activity (PRKACA (human); compound 10.0 µM): 113%
Compound: CC1=C(CO)C(=O)O[C@@H]([C@@H](C)[C@H]2CC[C@H]3[C@@H]4C[C@H]5O[C@]56[C@@H](O)C=CC(=O)[C@]6(C)C4CC[C@]23C)C1 (stereo not given in full)
residual activity (MAPK15 (human); compound 1.0 µM): 115% | residual activity (MAPK15 (human); compound 10.0 µM): 72%

residual activity (DYRK2 (human); compound 1.0 µM): 113% | residual activity (DYRK2 (human); compound 5.0 µM): 101% | residual activity (TAOK1 (human); compound 5.0 µM): 103% | residual activity (RPS6KA3 KD1 KD2 (human); compound 1.0 µM): 102% | residual activity (RPS6KA3 KD1 KD2 (human); compound 5.0 µM): 94% | residual activity (MST4 (human); compound 1.0 µM): 88% | residual activity (MST4 (human); compound 5.0 µM): 94% | residual activity (EPHA2 (human); compound 1.0 µM): 104% | residual activity (EPHA2 (human); compound 5.0 µM): 99% | residual activity (EEF2K (human); compound 1.0 µM): 107% | residual activity (EEF2K (human); compound 5.0 µM): 91% | residual activity (CDK2 CCNA2 (human); compound 1.0 µM): 93% | residual activity (CDK2 CCNA2 (human); compound 5.0 µM): 116% | residual activity (BRSK1 (human); compound 1.0 µM): 109% | residual activity (BRSK1 (human); compound 5.0 µM): 108% | residual activity (MAPK12 (human); compound 1.0 µM): 108% | residual activity (MAPK12 (human); compound 5.0 µM): 115% | residual activity (INSRR (human); compound 1.0 µM): 107% | residual activity (INSRR (human); compound 5.0 µM): 95% | residual activity (PIM2 (human); compound 1.0 µM): 110% | residual activity (PIM2 (human); compound 5.0 µM): 102% | residual activity (MELK (human); compound 1.0 µM): 138% | residual activity (MELK (human); compound 5.0 µM): 100% | residual activity (MAP2K6 (human); compound 1.0 µM): 96% | residual activity (MAP2K6 (human); compound 5.0 µM): 92% | residual activity (CSNK2A1 (human); compound 1.0 µM): 117% | residual activity (CSNK2A1 (human); compound 5.0 µM): 106% | residual activity (PIM3 (human); compound 1.0 µM): 119% | residual activity (PIM3 (human); compound 5.0 µM): 121% | residual activity (RIPK2 (human); compound 1.0 µM): 101% | residual activity (RIPK2 (human); compound 5.0 µM): 112% | residual activity (AURKB (human); compound 1.0 µM): 106% | residual activity (AURKB (human); compound 5.0 µM): 99% | residual activity (FGFR1 (human); compound 1.0 µM): 106% | residual activity (FGFR1 (human); compound 5.0 µM): 99% | residual activity (MAP2K2 (human); compound 5.0 µM): 109% | residual activity (MINK1 (human); compound 1.0 µM): 108% | residual activity (MINK1 (human); compound 5.0 µM): 122% | residual activity (MAPKAPK3 (human); compound 1.0 µM): 135% | residual activity (MAPKAPK3 (human); compound 5.0 µM): 58% | residual activity (CHEK1 (human); compound 1.0 µM): 123% | residual activity (CHEK1 (human); compound 5.0 µM): 98% | residual activity (BTK (human); compound 1.0 µM): 117% | residual activity (BTK (human); compound 5.0 µM): 85% | residual activity ([1]; compound 5.0 µM): 115% | residual activity (FLT1 (human); compound 1.0 µM): 109% | residual activity (FLT1 (human); compound 5.0 µM): 98% | residual activity (PRKCA (human); compound 1.0 µM): 108% | residual activity (PRKCA (human); compound 5.0 µM): 108% | residual activity (MAPK10 (human); compound 1.0 µM): 115% | residual activity (MAPK10 (human); compound 5.0 µM): 134% | residual activity (ERBB4 (human); compound 1.0 µM): 98% | residual activity (ERBB4 (human); compound 5.0 µM): 90% | residual activity (GCK (human); compound 1.0 µM): 116% | residual activity (GCK (human); compound 5.0 µM): 98% | residual activity (AURKA (human); compound 5.0 µM): 115% | residual activity (SRPK1 (human); compound 1.0 µM): 111% | residual activity (SRPK1 (human); compound 5.0 µM): 106% | residual activity (PHKG1 (human); compound 1.0 µM): 116% | residual activity (PHKG1 (human); compound 5.0 µM): 108% | residual activity ([2]; compound 1.0 µM): 102% | residual activity ([2]; compound 5.0 µM): 103% | residual activity (PRKACA (human); compound 1.0 µM): 121% | residual activity (PRKACA (human); compound 5.0 µM): 103%
Compound: C=C1C(=O)OC2C1CC/C(C)=C/CCC1(C)OC21 (stereo not given)
residual activity (MAPK15 (human); compound 1.0 µM): 98% | residual activity (MAPK15 (human); compound 5.0 µM): 119%
